Source: ChEMBL document CHEMBL1150888, “Dragmacidins: new protein phosphatase inhibitors from a southern australian deep-water marine sponge, spongosorites sp” (1998)
In brackets after ≈: the same amount, converted by molar mass. Activity calls are given as the source filed them. No cut-off for these calls is given here.

Columns and labels:
[1] = Inhibition of PP1
Candida albicans = test: Antifungal activity against Candida albicans; format: functional
[2] = Inhibition of PP2A
Escherichia coli = test: Antibacterial activity against Escherichia coli; format: functional

With C[C@@H]1c2ccc(O)c3[nH]cc(c23)-c2[nH]c(=O)c(-c3c[nH]c4cc(Br)ccc34)nc2[C@@]12CNC(N)=N2 [DRAGMACIDIN E] the Activity [1] was “Active”, the MIC (Candida albicans) was 36 µg/mL (≈ 67.9 µM) and the Activity [2] was “Active”. It also gave an MIC (Escherichia coli) of 22 µg/mL (≈ 41.5 µM).
With CC(C1=CNC(N)N1)c1ccc(O)c2[nH]cc(-c3cnc(-c4c[nH]c5cc(Br)ccc45)c(=O)[nH]3)c12 (configuration not stated) [DRAGMACIDIN D] the Activity [1] was “Active”, the MIC (Candida albicans) was 20 µg/mL (≈ 37.6 µM) and the MIC (Escherichia coli) was 16 µg/mL (≈ 30.1 µM).
